T1: tat synthetic peptide (arginine-rich portion) (Human immunodeficiency virus, UniProt P69698 SEQ:1-34)
T1 chain: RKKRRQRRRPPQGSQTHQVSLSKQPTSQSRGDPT

T2: 2b (PTGS suppressor) (Tomato aspermy virus, UniProt Q8UYT3 Q8UYT3:1-95)
T2 sequence: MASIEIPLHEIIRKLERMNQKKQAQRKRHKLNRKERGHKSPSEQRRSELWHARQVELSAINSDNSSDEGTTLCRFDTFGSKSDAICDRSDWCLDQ

T3: p19 (PTGS suppressor) (Tomato bushy stunt virus, UniProt P11690 P11690:1-172)
T3 sequence: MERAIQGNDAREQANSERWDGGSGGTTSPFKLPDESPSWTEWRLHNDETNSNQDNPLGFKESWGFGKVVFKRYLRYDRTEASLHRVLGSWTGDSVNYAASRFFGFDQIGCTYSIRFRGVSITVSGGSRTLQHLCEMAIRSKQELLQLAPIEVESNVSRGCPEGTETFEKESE

B1: biotinylated siRNA 21 bp (dsRNA)
RNA 1: UUGCUCAACAGUAUGGGCAUU
RNA 2: UGCCCAUACUGUUGAGCAAUU

Tests used:
[1] = target: PTGS-SP p19 of TBSV (Tomato bushy stunt virus, UniProt P11690); assay: Surface plasmon resonance (Biacore) inhibition of siRNA binding to p19; settings: read-out: Binding inhibition rate (%) Biacore p19 25 ppm
[2] = target: TAV-2b (Tomato aspermy virus, UniProt Q8UYT3); assay: Surface plasmon resonance (Biacore) inhibition of siRNA binding to TAV-2b; settings: read-out: Binding inhibition rate (%) Biacore TAV2b 25 ppm
[3] = target: synthetic peptide of tat (HIV tat) (Human immunodeficiency virus type 1 group M subtype B, UniProt P04610, P77S); assay: Gel shift assay, inhibition of siRNA binding to synthetic peptide of tat; settings: compound 100 ppm; synthetic peptide of tat 500 nM
[4] = target: T1, tat synthetic peptide (arginine-rich …); assay: EMSA; peptide 500 nM, siRNA 500 uM as printed, 0.005% BSA, 25 C; binding inhibited by small molecules; settings: protein: synthetic; tags: chemically synthesised peptide, Biologica Co., 98% purity; label: 3'-biotin on sense strand; siRNA duplex of two 21-mers
[5] = target: T2, 2b (PTGS suppressor); assay: SPR; siRNA on SA chip; 10 mM HEPES pH 7.4, 150 mM NaCl, 3 mM EDTA; 2b about 10 ug/ml; free siRNA 0.1 uM competes (positive control); small molecules inhibit binding; settings: tags: FLAG (MBP removed with Factor Xa); label: 3'-biotin on sense strand; siRNA duplex of two 21-mers
[6] = target: T3, p19 (PTGS suppressor); assay: SPR; siRNA on SA chip; 10 mM HEPES pH 7.4, 150 mM NaCl, 3 mM EDTA; p19 about 10 ug/ml; free siRNA 0.1 uM competes (positive control); small molecules inhibit binding; settings: tags: His-tag (pCold I), FLAG; chain copies: 2; label: 3'-biotin on sense strand; siRNA duplex of two 21-mers

Row | Molecule | inhibition at 25 ppm [1] [%] | inhibition at 25 ppm [2] [%] | Binding inhibition rate (%) Gel shift tat 100 ppm [3] [%] | binding result [4] | binding result [5] | binding result [6]
1 | O=c1c(O)c(O)c(=O)c(=O)c1=O [Compound 17] | 100 | 90 | – | – | – | –
2 | O=C1C=CC(=O)C=C1 [Compound 12] | 100 | 95 | 100 | – | – | –
3 | O=C1C=C(Cl)C(=O)C(Cl)=C1 [Compound 13] | – | – | 100 | – | – | –
4 | CC1(C)C(=O)C(C)(C)C1=O [Compound 2] | 75 | 0 | – | – | – | –
5 | O=C1CCCCC1 [Compound 10] | 70 | 50 | – | – | – | –
6 | CC(=O)C1CCCC1=O (centres unmarked) [Compound 4] | 20 | 90 | – | – | – | –
7 | COC1=C(OC)C(=O)C(C)=CC1=O [Compound 16] | 80 | 0 | 0 | – | – | –
8 | O=C1C=CC(=O)C1 [Compound 5] | 100 | 100 | 100 | – | – | –
9 | O=C1CCSC1 [Compound 9] | 95 | 0 | 0 | – | – | –
10 | O=C1C=C(Cl)C(=O)C=C1Cl [Compound 14] | – | – | 100 | – | – | –
11 | Cc1occc(=O)c1O [Compound 19] | 90 | 50 | 0 | – | – | –
12 | O=C1CCc2ccccc2C1=O [Compound 6] | 100 | 100 | 100 | – | – | –
13 | O=C1C=C(O)C(=O)C=C1O [Compound 15] | 95 | 100 | 80 | – | – | –
14 | CCOC(=O)C1CCCC1=O (centres unmarked) [Compound 3] | 0 | 90 | – | – | – | –
15 | O=C1CCC(=O)CC1 [Compound 11] | 70 | 20 | – | – | – | –
16 | O=C1C=CC(=O)c2c(O)ccc(O)c21 [Compound 20] | 100 | 80 | 100 | – | – | –
17 | NC1=CC(=O)CCC1 [Compound 18] | 90 | 80 | 0 | – | – | –
18 | COc1c(OC)c(=O)c1=O [Compound 1] | 80 | 80 | 10 | – | – | –
19 | B1 | – | – | – | binds | binds | binds

From US20100216981A1 (Nippon Soda Co., Ltd., priority 2007, published 2010)
